Experimental data reported in patent publication US8735364B2, “Antisense modulation of apolipoprotein B expression” (Genzyme Corporation, priority 2001, dated 2014).

Key:
Assay type in all cases: in vivo, mouse
[1] = Serum cholesterol and triglyceride levels, high fat fed mice, 6 week study; details: for Percent Inhibition of cholesterol levels: normalized to saline; for triglycerides / serum cholesterol: study end; for triglycerides: control 115 mg/dL; for serum cholesterol: control 240 mg/dL
Description: (§1) Male C57BL/6 mice (n=8) receiving a high fat diet (60% kcal fat) were evaluated over the course of 6 weeks for the effects of treatment with the antisense oligonucleotide, ISIS 147764. Control animals received saline treatment (50 mg/kg). A subset of animals received a daily oral dose (20 mg/kg) atorvastatin calcium (Lipitor®, Pfizer Inc.). All mice, except atorvastatin-treated animals, were dosed intraperitoneally every three days (twice a week), after fasting overnight, with 5, 25, 50 mg/kg ISIS 147764 (SEQ ID No: 109) or saline (50 mg/kg) for six weeks. Serum cholesterol and lipoproteins were analyzed at 0, 2 and 6 week interim timepoints. At study termination, animals were sacrificed 48 hours after the final injections and evaluated for levels of target mRNA levels in liver, cholesterol, lipoprotein, triglyceride, liver enzyme (AST and ALT) and serum glucose levels as well as body, liver, spleen and fat pad weights.
(§2) Male C57BL/6 mice (n=8) receiving a high fat diet (60% kcal fat) were evaluated over the course of 6 weeks for the effects of ISIS 147764 on serum cholesterol and triglyceride levels. Control animals received saline treatment (50 mg/kg). Mice were dosed intraperitoneally every three days (twice a week), after fasting overnight, with 5, 25, 50 mg/kg ISIS 147764 (SEQ ID No: 109) or saline (50 mg/kg) for six weeks.
Values in the table are expressed as percent inhibition and are normalized to the saline control.
In addition to serum cholesterol, at study termination, animals were sacrificed 48 hours after the final injections and evaluated for triglyceride levels.

[2] = Glucose, cholesterol and lipoprotein levels in ApoE knockout mice; details: for Lipoprotein Levels HDL: Control 51; for Glucose Levels: Control 225; for Lipoprotein Levels LDL: Control 525; for Lipoprotein Levels VLDL: Control 1190; for Cholesterol Levels: Control 1750
Description: Female ApoE knockout mice ranged in age from 5 to 7 weeks and were placed on a normal diet for 2 weeks before study initiation. ApoE knockout mice were then fed ad libitum a 60% fat diet, with 0.15% added cholesterol to induce dyslipidemia and obesity. Control animals were maintained on a high-fat diet with no added cholesterol After overnight fasting, mice from each group were dosed intraperitoneally every three days with saline, 50 mg/kg of a control antisense oligonucleotide (ISIS 29837 […]; SEQ ID NO. 124) or 5, 25 or 50 mg/kg ISIS 147764 (SEQ ID No: 109) for six weeks.
At study termination and forty eight hours after the final injections, animals were sacrificed and evaluated for target mRNA levels in liver by RT-PCR methods verified by Northern Blot analysis, glucose levels, cholesterol and lipid levels by HPLC separation methods and triglyceride and liver enzyme levels (perfomed by LabCorp Preclinical Services; San Diego, Calif.). Data are normalized to saline controls.

[3] = Liver enzyme levels, lean vs high fat fed C57BL/6 mice; details: for Liver Enzymes ALT Percent Change / Liver Enzymes AST Percent Change: 50 mg/kg i.p. every three days, six weeks
Description: Male C57BL/6 mice were divided into two matched groups; (1) wild-type control animals (lean animals) and (2) animals receiving a high fat diet (60% kcal fat). Control animals received saline treatment and were maintained on a normal rodent diet. After overnight fasting, mice from each group were dosed intraperitoneally every three days with saline or 50 mg/kg ISIS 147764 (SEQ ID No: 109) for six weeks. At study termination and forty eight hours after the final injections, animals were sacrificed and evaluated for target mRNA levels in liver, cholesterol and triglyceride levels, liver enzyme levels and serum glucose levels.

[4] = tested on: apolipoprotein B mRNA; experiment: Target mRNA levels in liver, high fat fed mice, 6 week timecourse study; details: high fat fed C57BL/6 mice, six weeks
Description: as §1
as §2, with “mRNA expression.” for “serum cholesterol and triglyceride levels.”, “weeks. At study termination, animals were sacrificed 48 hours after the final injections and evaluated for levels of target mRNA levels in liver.” for “weeks.”

[5] = Serum AST and ALT levels, high fat fed mice, 6 week study; details: for ALT levels / AST levels: 6 weeks; for ALT levels: saline control 25 IU/L; for AST levels: saline control 65 IU/L
Description: as §1
as §2, with “liver enzyme (AST” for “serum cholesterol”, “ALT)” for “triglyceride”
Values in the table are expressed as IU/L. Increased levels of the liver enzymes ALT and AST indicate toxicity and liver damage.

[6] = Serum glucose levels, high fat fed mice, 6 week study; details: study termination, saline control 300 mg/dL
Description: as §1
as §2, with “glucose” for “cholesterol and triglyceride”
At study termination, animals were sacrificed 48 hours after the final injections and evaluated for serum glucose levels. […] Mice treated with atorvastatin at a daily oral dose of 20 mg/kg had serum glucose levels of 215 mg/dL.

## GTCCCTGAAGATGTCAATGC (2'-MOE gapmer with phosphorothioates, pattern not given here) [ISIS 147764, 2′-MOE gapmer phosphorothioate oligonucleotide to mouse apolipoprotein B]
[1]; 5 mg/kg, 0 weeks
  Percent Inhibition of cholesterol levels: 0%
[1]; 5 mg/kg, 2 weeks
  Percent Inhibition of cholesterol levels: 5%
[1]; 5 mg/kg, 6 weeks
  Percent Inhibition of cholesterol levels: 10%
[1]; 5 mg/kg
  triglycerides: 125 mg/dL
  serum cholesterol: 225 mg/dL
[1]; 25 mg/kg, 0 weeks
  Percent Inhibition of cholesterol levels: 0%
[1]; 25 mg/kg, 2 weeks
  Percent Inhibition of cholesterol levels: 12%
[1]; 25 mg/kg, 6 weeks
  Percent Inhibition of cholesterol levels: 45%
[1]; 25 mg/kg
  triglycerides: 150 mg/dL
  serum cholesterol: 125 mg/dL
[1]; 50 mg/kg, 0 weeks
  Percent Inhibition of cholesterol levels: 0%
[1]; 50 mg/kg, 2 weeks
  Percent Inhibition of cholesterol levels: 20%
[1]; 50 mg/kg, 6 weeks
  Percent Inhibition of cholesterol levels: 55%
[1]; 50 mg/kg
  triglycerides: 85 mg/dL
  serum cholesterol: 110 mg/dL
[2]; 5 mg/kg
  Lipoprotein Levels HDL: 49 mg/dL
  Glucose Levels: 195 mg/dL
  Lipoprotein Levels LDL: 475 mg/dL
  Lipoprotein Levels VLDL: 1111 mg/dL
  Cholesterol Levels: 1630 mg/dL
[2]; 25 mg/kg
  Lipoprotein Levels HDL: 62 mg/dL
  Glucose Levels: 209 mg/dL
  Lipoprotein Levels LDL: 500 mg/dL
  Lipoprotein Levels VLDL: 1194 mg/dL
  Cholesterol Levels: 1750 mg/dL
[2]; 50 mg/kg
  Lipoprotein Levels HDL: 61 mg/dL
  Glucose Levels: 191 mg/dL
  Lipoprotein Levels LDL: 325 mg/dL
  Lipoprotein Levels VLDL: 1113 mg/dL
  Cholesterol Levels: 1490 mg/dL
[3]; high fat fed C57BL/6 mice
  Liver Enzymes ALT Percent Change: Slight
  Liver Enzymes AST Percent Change: Slight
[3]; lean C57BL/6 mice
  Liver Enzymes ALT Percent Change: No
  Liver Enzymes AST Percent Change: Slight
[3]; lean and high fat fed C57BL/6 mice, 50 mg/kg
  changes in liver enzyme levels: No significant changes
[4]; 5 mg/kg i.p. every three days
  reduction of target mRNA levels in liver: 15%
[4]; 25 mg/kg i.p. every three days
  reduction of target mRNA levels in liver: 75%
[4]; 50 mg/kg i.p. every three days
  reduction of target mRNA levels in liver: 88%
[5]; 5 mg/kg
  ALT levels: 50 IU/L
  AST levels: 105 IU/L
[5]; 25 mg/kg
  ALT levels: 70 IU/L
  AST levels: 70 IU/L
[5]; 50 mg/kg
  ALT levels: 100 IU/L
  AST levels: 80 IU/L
[5]; 5, 25 and 50 mg/kg
  change in AST levels over the duration of the study compared to saline controls: no significant change
[6]; 5 mg/kg
  serum glucose levels: 225 mg/dL
[6]; 25 mg/kg
  serum glucose levels: 190 mg/dL
[6]; 50 mg/kg
  serum glucose levels: 180 mg/dL
